This is an account of results in patent US11344709B2, “Fluid delivery apparatus having a controller assembly and method of use” (SORRENTO THERAPEUTICS, INC., priority 2016, dated 2022).

Series [1] is described as follows: Porcine Pharmacokinetic Study (FIG. 50): sumatriptan in blood serum after delivery from the fluid delivery apparatus. In kind it is in vivo, Yorkshire pigs. The conditions noted are these: 20 mg dose from the fluid delivery apparatus (microneedles), pig; actual profile FIG. 50 compared with nasal, oral and Zecuity (FIG. 49). Here is the method:
In reference to FIG. 50, shown is the time versus concentration profile of sumatriptan as administered according to the methods and devices disclosed herein. An ideal profile (identified as “Target PK Profile”) is calculated based on the therapeutic efficiency of the medicament.
Thirty five 80 kg castrated or female Yorkshire pigs were placed under anesthesia and a catheter was inserted into the right or left jugular vein. After the catheter was placed, the pigs were kept under anesthesia and placed on their backs. The ventral region was shaved and covered with a depilatory cream (Nair Sensitive®) for 8 minutes. The cream was removed and the area washed with alcohol. The fluid delivery apparatus was placed against the skin with an adhesive and the microneedles (100 total) were inserted at a post traveling velocity of 6 m/s. A 20 mg dose of sumatriptan from the fluid deliver apparatus was delivered while the pig was under anesthesia. 3 mL blood samples were withdrawn at each time point and spun down to recover the blood serum.

For series [2] the following is noted: FIG. 49, cited from earlier work.
Setting [3] is: nasal administration, compared with actual profile of the fluid delivery apparatus (FIG. 50).
Setting [4] is: subcutaneous administration, compared with the other routes of administration.

The structures appear in SMILES notation. Read-outs that look alike come from different tables or passages of the source.

Take `CNS(=O)(=O)Cc1ccc2[nH]cc(CCN(C)C)c2c1.O=C(O)CCC(=O)O` [sumatriptan, 1-[3-[2-(dimethylamino)ethyl]-1H-indol-5-yl]-N-methylmethanesulfonamide butanedioic acid]: the figures for the AUC entry in series [1] and in series [2] (setting [3]) were “significantly improved” and “significantly lower”, respectively. The Css entry in series [1] is given as “significantly improved”; in series [2] (setting [3]) it was “significantly lower”; in series [2] (subcutaneous administration), “significantly lower as time progresses”. Moreover, the Tmax entry in series [1] is given as “significantly improved”; in series [2] (oral administration, compared with actual profile of the fluid delivery apparatus (FIG. 50)), “much slower”; in series [2] (setting [4]), “much faster”. The Cmax entry in series [2] (setting [4]) is listed as “higher”.
